Measured values published in patent US11130793B2, “GLP-1/GLP-2 dual agonists” (Zealand Pharma A/S, priority 2016, dated 2021).
Where two headings read alike, the source gives them in different places. Square brackets hold non-standard residues; d marks the D form. Peptide text beside a SMILES is read from it. Aib = CC(C)(N)C(=O)O

Key:
human GLP-1 receptor = target: T1, human GLP-1 receptor (Homo sapiens, UniProt P43220); test: GLP-1 receptor potency assay (cAMP AlphaScreen, HEK293 cells stably expressing GLP-1R); type: cell-based; conditions: cAMP response, HEK293 cells expressing human GLP-1R; read-out: EC50 GLP-1
T1 construct: expressed in transfected cells
Method in brief: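 cAMP accumulation was quantified by AlphaScreen in G418-selected HEK293 cells stably transfected with human GLP-1R cDNA. Concentration-response data were normalized between vehicle and positive control. EC50 and maximal response came from 4PL curve fitting.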

[1] = Solubility assessment by turbidity absorbance at 325 nm; type: physicochemical; conditions: 1 mg/ml peptide
Method: A stock solution of the test peptide (2 mg/ml; determined from the weighed amount of peptide) in demineralized water adjusted to pH 2.5 with HCl was prepared, and aliquots were diluted 1:1 in 100 mM acetate buffer (pH 4.0 and pH 5.0), 100 mM histidine buffer (pH 6.0 and pH 7.0) and 100 mM phosphate buffer (pH 6.0, pH 7.0 and pH7.5), respectively, and loaded in a standard flat-bottom, non-sterile 96-well UV Microplate. The absorbance of samples (single samples, n=1) at 280 and 325 nm was measured in an absorbance-based plate reader, which was preheated to ambient temperature (typically 25° C.).

human GLP-2 receptor = target: T2, human GLP-2 receptor (Homo sapiens, UniProt O95838, D470N); test: GLP-2 receptor potency assay (cAMP AlphaScreen, HEK293 cells stably expressing GLP-2R); type: cell-based; conditions: cAMP response, HEK293 cells expressing human GLP-2R
T2 sequence (O95838 1-553 D470N): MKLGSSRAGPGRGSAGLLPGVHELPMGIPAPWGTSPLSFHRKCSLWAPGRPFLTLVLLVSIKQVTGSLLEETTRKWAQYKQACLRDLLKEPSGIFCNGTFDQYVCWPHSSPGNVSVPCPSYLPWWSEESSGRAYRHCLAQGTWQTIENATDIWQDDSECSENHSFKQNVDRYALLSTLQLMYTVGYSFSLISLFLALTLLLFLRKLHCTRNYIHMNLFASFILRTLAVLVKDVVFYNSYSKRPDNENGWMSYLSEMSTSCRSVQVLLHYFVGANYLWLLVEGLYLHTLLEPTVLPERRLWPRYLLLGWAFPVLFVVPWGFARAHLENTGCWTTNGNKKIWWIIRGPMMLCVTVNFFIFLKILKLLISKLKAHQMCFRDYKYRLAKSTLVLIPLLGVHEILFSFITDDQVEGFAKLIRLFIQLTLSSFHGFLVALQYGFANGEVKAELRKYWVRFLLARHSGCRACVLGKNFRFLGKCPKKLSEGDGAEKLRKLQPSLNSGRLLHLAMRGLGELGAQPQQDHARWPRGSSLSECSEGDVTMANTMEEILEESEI
Method in brief: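 EC50 and maximal response were fitted with a 4PL model after normalization to positive control and vehicle. cAMP accumulation was quantified by AlphaScreen in a stable HEK293 clone transfected with human GLP-2 receptor.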

[2] = 100 mM acetate buffer pH 4.0, ambient temperature, read-out: Solubility, Acetate buffer pH 4
[3] = 100 mM acetate buffer pH 5.0, ambient temperature, read-out: Solubility, Acetate buffer pH 5
[4] = 100 mM histidine buffer pH 6.0, ambient temperature, read-out: Solubility, Histidine buffer pH 6
[5] = 100 mM histidine buffer pH 7.0, ambient temperature, read-out: Solubility, Histidine buffer pH 7
[6] = 100 mM phosphate buffer pH 6.0, ambient temperature, read-out: Solubility, Phosphate buffer pH 6
[7] = 100 mM phosphate buffer pH 7.0, ambient temperature, read-out: Solubility, Phosphate buffer pH 7
[8] = 100 mM phosphate buffer pH 7.5, ambient temperature, read-out: Solubility, Phosphate buffer pH 7.5

T1 sequence (P43220 24-463): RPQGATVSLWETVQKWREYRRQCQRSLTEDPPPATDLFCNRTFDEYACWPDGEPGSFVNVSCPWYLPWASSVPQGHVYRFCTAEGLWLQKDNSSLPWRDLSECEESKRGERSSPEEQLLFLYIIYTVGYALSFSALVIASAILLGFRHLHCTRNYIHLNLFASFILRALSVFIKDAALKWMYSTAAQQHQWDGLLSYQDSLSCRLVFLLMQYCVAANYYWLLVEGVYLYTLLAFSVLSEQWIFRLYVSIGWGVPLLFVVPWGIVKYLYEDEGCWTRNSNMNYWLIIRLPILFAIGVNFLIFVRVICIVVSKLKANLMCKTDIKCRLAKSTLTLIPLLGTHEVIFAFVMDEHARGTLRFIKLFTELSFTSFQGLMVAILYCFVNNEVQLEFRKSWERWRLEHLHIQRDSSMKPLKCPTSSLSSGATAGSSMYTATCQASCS

Structure (SMILES) | EC50 (human GLP-1 receptor) [nM] | solubility [1, 2] [µg/mL] | solubility [1, 3] [µg/mL] | solubility [1, 4] [µg/mL] | solubility [1, 5] [µg/mL] | solubility [1, 6] [µg/mL] | solubility [1, 7] [µg/mL] | solubility [1, 8] [µg/mL] | EC50 (human GLP-2 receptor) [nM]
CC[C@H](C)[C@H](NC(=O)[C@H](Cc1ccccc1)NC(=O)[C@H](CC(=O)O)NC(=O)[C@H](CCCNC(=N)N)NC(=O)[C@H](C)NC(=O)[C@H](C)NC(=O)[C@H](CCC(N)=O)NC(=O)[C@H](CCC(=O)O)NC(=O)[C@H](CC(=O)O)NC(=O)[C@H](CC(C)C)NC(=O)[C@@H](NC(=O)[C@@H](NC(=O)[C@H](C)NC(=O)[C@H](CC(C)C)NC(=O)[C@H](CCC(=O)O)NC(=O)[C@H](CO)NC(=O)[C@@H](NC(=O)[C@H](Cc1ccccc1)NC(=O)[C@H](CO)NC(=O)CNC(=O)[C@H](CCC(=O)O)NC(=O)C(C)(C)NC(=O)[C@@H](N)Cc1c[nH]cn1)[C@@H](C)O)[C@@H](C)O)[C@@H](C)CC)C(=O)N[C@@H](C)C(=O)N[C@@H](Cc1c[nH]c2ccccc12)C(=O)N[C@@H](CC(C)C)C(=O)N[C@H](C(=O)N[C@@H](CC(C)C)C(=O)N[C@@H](Cc1c[nH]cn1)C(=O)N[C@@H](CCCCN)C(=O)N[C@H](C(=O)N[C@H](C(=O)N[C@@H](CC(=O)O)C(=O)O)[C@@H](C)O)[C@@H](C)CC)[C@@H](C)CC [Compound 8] (H-H[Aib]EGSFTSELATILDEQAARDFIAWLILHKITD-OH) | 0.021 | ≥ 1000 | < 1000 | < 1000 | ≥ 1000 | < 1000 | ≥ 1000 | ≥ 1000 | 0.084
CC[C@H](C)[C@H](NC(=O)[C@H](Cc1ccccc1)NC(=O)[C@H](CC(=O)O)NC(=O)[C@H](CCCNC(=N)N)NC(=O)[C@H](C)NC(=O)[C@H](C)NC(=O)[C@H](CCC(N)=O)NC(=O)[C@H](CCC(=O)O)NC(=O)[C@H](CC(=O)O)NC(=O)[C@H](CC(C)C)NC(=O)[C@@H](NC(=O)[C@@H](NC(=O)[C@H](C)NC(=O)[C@H](CC(C)C)NC(=O)[C@H](CCC(=O)O)NC(=O)[C@H](CO)NC(=O)[C@@H](NC(=O)[C@H](Cc1ccccc1)NC(=O)[C@H](CO)NC(=O)CNC(=O)[C@H](CCC(=O)O)NC(=O)C(C)(C)NC(=O)[C@@H](N)Cc1c[nH]cn1)[C@@H](C)O)[C@@H](C)O)[C@@H](C)CC)C(=O)N[C@@H](C)C(=O)N[C@@H](Cc1c[nH]c2ccccc12)C(=O)N[C@@H](CC(C)C)C(=O)N[C@H](C(=O)N[C@@H](CCC(=O)O)C(=O)N[C@@H](Cc1c[nH]cn1)C(=O)N[C@@H](CCCCN)C(=O)N[C@H](C(=O)N[C@H](C(=O)N[C@@H](CC(=O)O)C(=O)O)[C@@H](C)O)[C@@H](C)CC)[C@@H](C)CC [Compound 4] (H-H[Aib]EGSFTSELATILDEQAARDFIAWLIEHKITD-OH) | 0.015 | ≥ 1000 | < 1000 | ≥ 1000 | ≥ 1000 | ≥ 1000 | ≥ 1000 | ≥ 1000 | 0.044
CC[C@H](C)[C@H](NC(=O)[C@H](CC(C)C)NC(=O)[C@H](Cc1c[nH]c2ccccc12)NC(=O)[C@H](C)NC(=O)[C@@H](NC(=O)[C@H](Cc1ccccc1)NC(=O)[C@H](CC(=O)O)NC(=O)[C@H](CCCNC(=N)N)NC(=O)[C@H](C)NC(=O)[C@H](C)NC(=O)[C@H](CCC(N)=O)NC(=O)[C@H](CCC(=O)O)NC(=O)[C@H](CC(=O)O)NC(=O)[C@H](CC(C)C)NC(=O)[C@@H](NC(=O)[C@@H](NC(=O)[C@H](C)NC(=O)[C@H](CC(C)C)NC(=O)[C@H](CCC(=O)O)NC(=O)[C@H](CC(=O)O)NC(=O)[C@@H](NC(=O)[C@H](Cc1ccccc1)NC(=O)[C@@H](NC(=O)CNC(=O)[C@H](CCC(=O)O)NC(=O)C(C)(C)NC(=O)[C@@H](N)Cc1c[nH]cn1)[C@@H](C)O)[C@@H](C)O)[C@@H](C)O)[C@@H](C)CC)[C@@H](C)CC)C(=O)N[C@@H](C)C(=O)N[C@@H](Cc1c[nH]cn1)C(=O)N[C@@H](CCCCN)C(=O)N[C@H](C(=O)N[C@H](C(=O)N[C@@H](CC(=O)O)C(=O)O)[C@@H](C)O)[C@@H](C)CC [Compound 9] (H-H[Aib]EGTFTDELATILDEQAARDFIAWLIAHKITD-OH) | 0.007 |  |  |  |  |  |  |  | 0.041

The remaining compounds from weak to strong by EC50 (human GLP-1 receptor), led by results:

EC50 (human GLP-1 receptor) [nM] | solubility [1, 2] [µg/mL] | solubility [1, 3] [µg/mL] | solubility [1, 4] [µg/mL] | solubility [1, 5] [µg/mL] | solubility [1, 6] [µg/mL] | solubility [1, 7] [µg/mL] | solubility [1, 8] [µg/mL] | EC50 (human GLP-2 receptor) [nM] | Structure (SMILES)
0.017 | ≥ 1000 | < 1000 | < 1000 | ≥ 1000 | < 1000 | ≥ 1000 | ≥ 1000 | 0.11 | CC[C@H](C)[C@H](NC(=O)[C@H](Cc1ccccc1)NC(=O)[C@H](CC(=O)O)NC(=O)[C@H](CCCNC(=N)N)NC(=O)[C@H](C)NC(=O)[C@H](C)NC(=O)[C@H](CCC(N)=O)NC(=O)[C@H](CCC(=O)O)NC(=O)[C@H](CC(=O)O)NC(=O)[C@H](CC(C)C)NC(=O)[C@@H](NC(=O)[C@@H](NC(=O)[C@H](C)NC(=O)[C@H](CC(C)C)NC(=O)[C@H](CCC(=O)O)NC(=O)[C@H](CO)NC(=O)[C@@H](NC(=O)[C@H](Cc1ccccc1)NC(=O)[C@H](CO)NC(=O)CNC(=O)[C@H](CCC(=O)O)NC(=O)C(C)(C)NC(=O)[C@@H](N)Cc1c[nH]cn1)[C@@H](C)O)[C@@H](C)O)[C@@H](C)CC)C(=O)N[C@@H](C)C(=O)N[C@@H](Cc1c[nH]c2ccccc12)C(=O)N[C@@H](CC(C)C)C(=O)N[C@H](C(=O)N[C@@H](Cc1ccc(O)cc1)C(=O)N[C@@H](Cc1c[nH]cn1)C(=O)N[C@@H](CCCCN)C(=O)N[C@H](C(=O)N[C@H](C(=O)N[C@@H](CC(=O)O)C(=O)O)[C@@H](C)O)[C@@H](C)CC)[C@@H](C)CC [Compound 7] (H-H[Aib]EGSFTSELATILDEQAARDFIAWLIYHKITD-OH)
0.014 | ≥ 1000 | < 1000 | < 1000 | ≥ 1000 | < 1000 | ≥ 1000 | < 1000 | 0.047 | CC[C@H](C)[C@H](NC(=O)[C@H](Cc1ccccc1)NC(=O)[C@H](CC(=O)O)NC(=O)[C@H](CCCNC(=N)N)NC(=O)[C@H](C)NC(=O)[C@H](C)NC(=O)[C@H](CCC(N)=O)NC(=O)[C@H](CCC(=O)O)NC(=O)[C@H](CC(=O)O)NC(=O)[C@H](CC(C)C)NC(=O)[C@@H](NC(=O)[C@@H](NC(=O)[C@H](C)NC(=O)[C@H](CC(C)C)NC(=O)[C@H](CCC(=O)O)NC(=O)[C@H](CO)NC(=O)[C@@H](NC(=O)[C@H](Cc1ccccc1)NC(=O)[C@H](CO)NC(=O)CNC(=O)[C@H](CCC(=O)O)NC(=O)C(C)(C)NC(=O)[C@@H](N)Cc1c[nH]cn1)[C@@H](C)O)[C@@H](C)O)[C@@H](C)CC)C(=O)N[C@@H](C)C(=O)N[C@@H](Cc1c[nH]c2ccccc12)C(=O)N[C@@H](CC(C)C)C(=O)N[C@H](C(=O)N[C@@H](Cc1c[nH]cn1)C(=O)N[C@@H](Cc1c[nH]cn1)C(=O)N[C@@H](CCCCN)C(=O)N[C@H](C(=O)N[C@H](C(=O)N[C@@H](CC(=O)O)C(=O)O)[C@@H](C)O)[C@@H](C)CC)[C@@H](C)CC [Compound 6] (H-H[Aib]EGSFTSELATILDEQAARDFIAWLIHHKITD-OH)
